This is an account of results in patent US20170334899A1, “AMINO-SUBSTITUTED ISOTHIAZOLES” (Bayer Pharma Aktiengesellschaft, priority 2014, published 2017).

Test [1] relates to human cervical tumor cell line HeLa (ATCC CCL-2). Briefly: SAC-Formation - Paclitaxel-Induced Assay. In kind it is cell-based. Particulars: Homo sapiens, HeLa, 24 h, HeLa cells, paclitaxel 0.05 μM, test range 0.005 μM-20 μM, read-out: IC50 [mol/l] SAC-Formation - Paclitaxel-Induced Assay. The method in brief:
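HeLa cells incubated overnight at 37° C, then given paclitaxel (0.05 μM final) plus test compound (0.005–20 μM, 0.5% DMSO) together for 24 h at 37° C. Fixed cells stained for phospho-histone H3 Ser10 (mitotic cells) and Hoechst 33342 (cell count); imaging-derived mitotic index fitted by four-parameter Hill equation.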

A further test has as its system HeLa. Briefly: Proliferation assay (crystal violet), HeLa. In kind it is cell-based. As to conditions: Homo sapiens, HeLa, 96 h, HeLa cells; 4 days incubation; crystal violet staining; read-out: IC50 inhibition of proliferation, HeLa. A digest of the protocol:
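Seed 1000–5000 cells/well, 10% FCS; 24 h later replace medium and add compound (0.001–10 μM, 0.5% DMSO); incubate 4 d; glutaraldehyde fix, 0.1% crystal violet pH 3.0, elute with 10% acetic acid; A595; 4-parameter IC50.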

Bounds are passed on as bounds.

Consider `CC(=O)N1CCC(Oc2ccc(NC(=O)c3c(C)nsc3Nc3cnc4ccccc4n3)cn2)CC1` [Example 22, N-{6-[(1-acetylpiperidin-4-yl)oxy]pyridin-3-yl}-3-methyl-5-(quinoxalin-2-ylamino)-1,2-thiazole-4-carboxamide], for which the IC50 was determined as 2100 nM in test [1] and 7600 nM with HeLa. On to `Cc1nsc(Nc2cc(C#N)ccn2)c1C(=O)Nc1ccc(OC2CCN(C(=O)OC(C)(C)C)CC2)nc1` [Example 23, tert-Butyl 4-({5-[({5-[(4-cyanopyridin-2-yl)amino]-3-methyl-1,2-thiazol-4-yl}-carbonyl)amino]pyridin-2-yl}oxy)piperidine-1-carboxylate], for which the IC50 came out at 32 nM in test [1] and 2600 nM in the test on HeLa. For `Cc1nsc(Nc2cc(C#N)ccn2)c1C(=O)Nc1ccc(OC2CCNCC2)nc1` [Example 24, 5-[(4-Cyanopyridin-2-yl)amino]-3-methyl-N-[6-(piperidin-4-yloxy)pyridin-3-yl]-1,2-thiazole-4-carboxamide], the IC50 in test [1] was 20000 nM; in the test with HeLa it was 10000 nM. Consider `Cc1nsc(Nc2cc(C#N)ccn2)c1C(=O)Nc1ccc(OC2CCN(CC(F)(F)F)CC2)nc1` [Example 25, 5-[(4-Cyanopyridin-2-yl)amino]-3-methyl-N-(6-{[1-(2,2,2-trifluoroethyl)piperidin-4-yl]oxy}pyridin-3-yl)-1,2-thiazole-4-carboxamide], for which the IC50 in test [1] came out at 66 nM; in the test with HeLa it was 2100 nM. In the same order, the values of `CCN1CCC(Oc2ccc(NC(=O)c3c(C)nsc3Nc3cc(C#N)ccn3)cn2)CC1` [Example 26, 5-[(4-Cyanopyridin-2-yl)amino]-N-{6-[(1-ethylpiperidin-4-yl)oxy]pyridin-3-yl}-3-methyl-1,2-thiazole-4-carboxamide] are 20000 nM and 10000 nM. On to `Cc1nsc(Nc2cnc3ccccc3n2)c1C(=O)Nc1ccc(N2CCN(C(=O)OC(C)(C)C)CC2)nc1` [Example 248, tert-butyl 4-[5-({[3-methyl-5-(quinoxalin-2-ylamino)-1,2-thiazol-4-yl]carbonyl}amino)pyridin-2-yl]piperazine-1-carboxylate], for which the IC50 in test [1] amounted to 940 nM; with HeLa, 3100 nM. On to `Cc1nsc(Nc2cnc3ccccc3n2)c1C(=O)Nc1cccc(C(=O)NC2CC2)c1` [Example 249, N-[3-(cyclopropylcarbamoyl)phenyl]-3-methyl-5-(quinoxalin-2-ylamino)-1,2-thiazole-4-carboxamide], for which the IC50 in test [1] was determined as 1100 nM; in the test on HeLa, 6200 nM. In the case of `Cc1nsc(Nc2ccc(C#N)cn2)c1C(=O)Nc1cccc(C(=O)NC2CC2)c1` [Example 250, 5-[(5-cyanopyridin-2-yl)amino]-N-[3-(cyclopropylcarbamoyl)phenyl]-3-methyl-1,2-thiazole-4-carboxamide], the IC50 in test [1] is 4700 nM; in the test with HeLa it was greater than 10000 nM. For the compound `CCNC(=O)c1cccc(NC(=O)c2c(C)nsc2Nc2cnc3ccccc3n2)c1` [Example 251, N-[3-(ethylcarbamoyl)phenyl]-3-methyl-5-(quinoxalin-2-ylamino)-1,2-thiazole-4-carboxamide], the figures for the IC50 (in test [1]; in the test with HeLa) were 3000 nM and 4500 nM, respectively. The like results for `CCNC(=O)c1cccc(NC(=O)c2c(C)nsc2Nc2ccc(C#N)cn2)c1` [Example 252, 5-[(5-cyanopyridin-2-yl)amino]-N-[3-(ethylcarbamoyl)phenyl]-3-methyl-1,2-thiazole-4-carboxamide] were, in that order, 120 nM and greater than 10000 nM.

Take `Cc1nsc(Nc2cnc3ccccc3n2)c1C(=O)Nc1cccc(C(=O)NC(C)C)c1` [Example 253, N-[3-(isopropylcarbamoyl)phenyl]-3-methyl-5-(quinoxalin-2-ylamino)-1,2-thiazole-4-carboxamide]: the IC50 is 2200 nM in test [1] and 3100 nM with HeLa. The like results for `Cc1nsc(Nc2cc(C#N)ccn2)c1C(=O)Nc1cccc(C(=O)NC(C)C)c1` [Example 254, 5-[(4-cyanopyridin-2-yl)amino]-N-[3-(isopropylcarbamoyl)phenyl]-3-methyl-1,2-thiazole-4-carboxamide] were, in that order, 2300 nM and greater than 10000 nM. Take `Cc1nsc(Nc2ccc(C#N)cn2)c1C(=O)Nc1cccc(C(=O)NC(C)C)c1` [Example 255, 5-[(5-cyanopyridin-2-yl)amino]-N-[3-(isopropylcarbamoyl)phenyl]-3-methyl-1,2-thiazole-4-carboxamide]: the IC50 is 10000 nM in test [1] and 6100 nM in the test on HeLa. On to `COC(=O)CCCc1ccc(NC(=O)c2c(C)nsc2Nc2cc(C#N)ccn2)cc1` [Example 256, methyl 4-{4-[({5-[(4-cyanopyridin-2-yl)amino]-3-methyl-1,2-thiazol-4-yl}carbonyl)amino]phenyl}butanoate], for which the IC50 is 3600 nM in test [1] and greater than 10000 nM with HeLa. Regarding `COC(=O)CCc1cccc(NC(=O)c2c(C)nsc2Nc2cnc3ccccc3n2)c1` [Example 257, methyl 3-[3-({[3-methyl-5-(quinoxalin-2-ylamino)-1,2-thiazol-4-yl]carbonyl}amino)phenyl]propanoate], the IC50 in test [1] came out at 2700 nM; in the test with HeLa, 7700 nM. With `Cc1nsc(Nc2cnc3ccccc3n2)c1C(=O)Nc1cccc(NS(=O)(=O)C2CCN(C(=O)OC(C)(C)C)CC2)c1` [Example 258, tert-butyl 4-{[3-({[3-methyl-5-(quinoxalin-2-ylamino)-1,2-thiazol-4-yl]carbonyl}amino)phenyl]sulfamoyl} piperidine-1-carboxylate], the IC50 in test [1] came out at 2000 nM; in the test with HeLa, 7000 nM. Regarding `Cc1nsc(Nc2cnc(C(F)(F)F)cn2)c1C(=O)Nc1ccc(C(=O)NC2CCN(CC(F)F)CC2)cc1` [Example 259, N-(4-{[1-(2,2-difluoroethyl)piperidin-4-yl]carbamoyl}phenyl)-3-methyl-5-{[5-(trifluoromethyl)pyrazin-2-yl]amino}-1,2-thiazole-4-carboxamide], the values for the IC50 (in test [1]; in the test on HeLa) were 4400 nM and greater than 10000 nM, respectively. As to `Cc1nsc(Nc2cnc(C(F)(F)F)cn2)c1C(=O)Nc1ccc(C(=O)N2CCN(CC(F)(F)F)CC2)cc1` [Example 260, 3-methyl-N-(4-{[4-(2,2,2-trifluoroethyl)piperazin-1-yl]carbonyl}phenyl)-5-{[5-(trifluoromethyl)pyrazin-2-yl]amino}-1,2-thiazole-4-carboxamide], the IC50 in test [1] is 400 nM; in the test on HeLa it was 1500 nM. In the same order, the values of `CCN1CCN(C(=O)c2ccc(NC(=O)c3c(C)nsc3Nc3cnc(C(F)(F)F)cn3)cc2)CC1` [Example 261, N-{4-[(4-ethylpiperazin-1-yl)carbonyl]phenyl}-3-methyl-5-{[5-(trifluoromethyl)pyrazin-2-yl]amino}-1,2-thiazole-4-carboxamide] are 2900 nM and 4800 nM. The like results for `Cc1nsc(Nc2cnc(C(F)(F)F)cn2)c1C(=O)Nc1ccc(C(=O)N2CCN(C)CC2)cc1` [Example 262, 3-methyl-N-{4-[(4-methylpiperazin-1 yl)carbonyl]phenyl}-5-{[5-(trifluoromethyl)pyrazin-2-yl]amino}-1,2-thiazole-4-carboxamide] were, in that order, 4800 nM and 9400 nM. On to `Cc1nsc(Nc2cc(C#N)ccn2)c1C(=O)Nc1ccc(OC2CCN(CC(F)F)CC2)nc1` [Example 263, 5-[(4-cyanopyridin-2-yl)amino]-N-(6-{[1-(2,2-difluoroethyl)piperidin-4-yl]oxy}pyridin-3-yl)-3-methyl-1,2-thiazole-4-carboxamide], for which the IC50 came out at 3500 nM in test [1] and 3200 nM in the test on HeLa. The like results for `Cc1nsc(Nc2cnc(C(F)(F)F)cn2)c1C(=O)Nc1ccc(F)c(OC2CCN(CC(F)(F)F)CC2)c1` [Example 264, N-(4-fluoro-3-{[1-(2,2,2-trifluoroethyl)piperidin-4-yl]oxy}phenyl)-3-methyl-5-{[5-(trifluoromethyl)pyrazin-2-yl]amino}-1,2-thiazole-4-carboxamide] were, in that order, 72 nM and 130 nM. Consider `Cc1nsc(Nc2cnc(C(F)(F)F)cn2)c1C(=O)Nc1ccc(F)c(OC2CCN(CC(F)F)CC2)c1` [Example 265, N-(3-{[1-(2,2-difluoroethyl)piperidin-4-yl]oxy}-4-fluorophenyl)-3-methyl-5-{[5-(trifluoromethyl)pyrazin-2-yl]amino}-1,2-thiazole-4-carboxamide], for which the IC50 in test [1] turned out to be 150 nM; with HeLa it was 320 nM. In the same order, the values of `Cc1nsc(Nc2cnc(C(F)(F)F)cn2)c1C(=O)Nc1ccc(F)c(OC2CCN(CCF)CC2)c1` [Example 266, N-(4-fluoro-3-{[1-(2-fluoroethyl)piperidin-4-yl]oxy}phenyl)-3-methyl-5-{[5-(trifluoromethyl)pyrazin-2-yl]amino}-1,2-thiazole-4-carboxamide] are 160 nM and 310 nM.

Take `Cc1nsc(Nc2cncc(C(F)(F)F)n2)c1C(=O)Nc1ccc(F)c(OC2CCN(CC(F)(F)F)CC2)c1` [Example 267, N-(4-fluoro-3-{[1-(2,2,2-trifluoroethyl)piperidin-4-yl]oxy}phenyl)-3-methyl-5-{[6-(trifluoromethyl)pyrazin-2-yl]amino}-1,2-thiazole-4-carboxamide]: the IC50 is 20 nM in test [1] and 580 nM in the test with HeLa. In the case of `Cc1nsc(Nc2cnc(C(F)(F)F)cn2)c1C(=O)Nc1ccc(F)c(OCC2CCN(C(CF)CF)CC2)c1` [Example 312, N-(3-{[1-(1,3-difluoropropan-2-yl)piperidin-4-yl]methoxy}-4-fluorophenyl)-3-methyl-5-{[5-(trifluoromethyl)pyrazin-2-yl]amino}-1,2-thiazole-4-carboxamide], the IC50 in the test with HeLa was 420 nM.
